Measured values taken from PubChem BioAssay (NCI).
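Assay format: 96-well plates, 48-hour exposure. TGI denotes the concentration required for complete inhibition of growth.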

Tests used:
Assay in all cases: NCI-60 cell line screen, 48 h
A498 renal = system: A498 renal
ACHN renal = system: ACHN renal
CAKI-1 renal = system: CAKI-1 renal
CCRF-CEM leukemia = system: CCRF-CEM leukemia
COLO 205 colon = system: COLO 205 colon
DLD-1 colon = system: DLD-1 colon
DMS 114 small cell lung = system: DMS 114 small cell lung
DMS 273 small cell lung = system: DMS 273 small cell lung
EKVX NSCLC = system: EKVX NSCLC
HCT-116 colon = system: HCT-116 colon
HCT-15 colon = system: HCT-15 colon
HL-60(TB) leukemia = system: HL-60(TB) leukemia
HOP-18 NSCLC = system: HOP-18 NSCLC
HOP-62 NSCLC = system: HOP-62 NSCLC
HOP-92 NSCLC = system: HOP-92 NSCLC
HT29 colon = system: HT29 colon
IGROV1 ovarian = system: IGROV1 ovarian
K-562 leukemia = system: K-562 leukemia
KM20L2 colon = system: KM20L2 colon
LOX IMVI melanoma = system: LOX IMVI melanoma
LXFL 529 NSCLC = system: LXFL 529 NSCLC
M14 melanoma = system: M14 melanoma
M19-MEL melanoma = system: M19-MEL melanoma
MALME-3M melanoma = system: MALME-3M melanoma
MOLT-4 leukemia = system: MOLT-4 leukemia
NCI-H226 lung = system: NCI-H226 lung
NCI-H460 lung = system: NCI-H460 lung
NCI-H522 lung = system: NCI-H522 lung
OVCAR-3 ovarian = system: OVCAR-3 ovarian
OVCAR-8 ovarian = system: OVCAR-8 ovarian
RPMI-8226 leukemia = system: RPMI-8226 leukemia
SF-268 CNS = system: SF-268 CNS
SF-295 CNS = system: SF-295 CNS
SF-539 CNS = system: SF-539 CNS
SK-MEL-2 melanoma = system: SK-MEL-2 melanoma
SK-MEL-28 melanoma = system: SK-MEL-28 melanoma
SK-MEL-5 melanoma = system: SK-MEL-5 melanoma
SK-OV-3 ovarian = system: SK-OV-3 ovarian
SN12C renal = system: SN12C renal
SNB-19 CNS = system: SNB-19 CNS
SNB-75 CNS = system: SNB-75 CNS
SNB-78 CNS = system: SNB-78 CNS
SW-620 colon = system: SW-620 colon
TK-10 renal = system: TK-10 renal
U251 CNS = system: U251 CNS
UACC-62 melanoma = system: UACC-62 melanoma
UO-31 renal = system: UO-31 renal
XF 498 CNS = system: XF 498 CNS
786-0 renal = system: 786-0 renal
A549 NSCLC = system: A549 NSCLC
HCC-2998 colon = system: HCC-2998 colon
KM12 colon = system: KM12 colon
NCI-H23 lung = system: NCI-H23 lung
OVCAR-4 ovarian = system: OVCAR-4 ovarian
OVCAR-5 ovarian = system: OVCAR-5 ovarian
RXF 393 renal = system: RXF 393 renal
SR leukemia = system: SR leukemia
UACC-257 melanoma = system: UACC-257 melanoma

Measured: TGI

COc1ccc(/C(Cl)=C(\C=O)c2ccc(Cl)c(Cl)c2)cc1
7.87 µM: SNB-75 CNS
31.9 µM: OVCAR-3 ovarian
19.3 µM: SW-620 colon
38 µM: M14 melanoma
18 µM: DMS 114 small cell lung
8.05 µM: RPMI-8226 leukemia
49 µM: SNB-78 CNS
24 µM: KM20L2 colon
15.5 µM: HT29 colon | SK-MEL-2 melanoma
28.3 µM: HOP-18 NSCLC
25.8 µM: SK-MEL-5 melanoma
30.2 µM: CCRF-CEM leukemia
7.36 µM: MOLT-4 leukemia
36.4 µM: NCI-H226 lung
32.3 µM: OVCAR-8 ovarian
> 100 µM: K-562 leukemia
35.6 µM: A498 renal
23 µM: CAKI-1 renal
19 µM: NCI-H460 lung
22 µM: SF-295 CNS
23.9 µM: HL-60(TB) leukemia
24.9 µM: SF-268 CNS
32.8 µM: DMS 273 small cell lung
55 µM: SK-OV-3 ovarian
29.2 µM: SN12C renal
13.9 µM: LOX IMVI melanoma
33.7 µM: IGROV1 ovarian
27.2 µM: HOP-62 NSCLC
34.1 µM: MALME-3M melanoma
22.2 µM: SF-539 CNS
20.4 µM: HCT-15 colon | LXFL 529 NSCLC
24.3 µM: HOP-92 NSCLC | XF 498 CNS
14.1 µM: HCT-116 colon
25.5 µM: DLD-1 colon
37.9 µM: EKVX NSCLC
31 µM: SK-MEL-28 melanoma
20 µM: ACHN renal
28.2 µM: M19-MEL melanoma
36.6 µM: COLO 205 colon
26.7 µM: UACC-62 melanoma
7.76 µM: NCI-H522 lung
30.1 µM: SNB-19 CNS
18.4 µM: U251 CNS
26.8 µM: UO-31 renal
32.5 µM: TK-10 renal

NC1=NS(=O)(=O)Nc2nc(-c3ccccc3)c(-c3ccccc3)nc21
not listed: A498 renal | CAKI-1 renal | DMS 114 small cell lung | HOP-62 NSCLC
> 100 µM: all other assays above

N#Cc1cccc(N2C(=O)c3ccc(C(=O)c4ccc5c(c4)C(=O)N(c4cccc(C#N)c4)C5=O)cc3C2=O)c1
not listed: ACHN renal | SK-MEL-28 melanoma | HCC-2998 colon | SR leukemia
> 100 µM: all other assays above
